Laboratory results: patent US8637526B2, “Pyrazolopyrimidine JAK inhibitor compounds and methods” (Genentech, Inc., priority 2008, dated 2014)
Where two headings read alike, the source gives them in different places.

Columns and labels:
[1] = tested on: Set-2 cells, which express the JAK2V617F mutant protein; assay: STAT5 phosphorylation in Set-2 cells (JAK2-dependent signaling, MSD); assay type: cell-based; details: Homo sapiens, read-out: pSTAT5 SET2 EC50
Protocol: The activities of compounds were determined in cell-based assays that are designed to measure JAK2-dependent signaling or proliferation. Compounds were serially diluted in DMSO and incubated with Set-2 cells (German Collection of Microorganisms and Cell Cultures (DSMZ); Braunschweig, Germany), which express the JAK2V617F mutant protein, in 96-well microtiter plates for 1 hr at 37° C. in RPMI medium at a final cell density of 100,000 cells per well and a final DMSO concentration of 0.57%. Compound-mediated effects on STATS phosphorylation were then measured in the lysates of incubated cells using the Meso Scale Discovery (MSD) technology (Gaithersburg, Md.) according to the manufacturer's protocol and EC50 values were determined. Alternatively, serially diluted compounds were added to 384-well microtiter plates in RPMI medium with 10% fetal bovine serum (Invitrogen Corp.; Carlsbad, Calif.) at a final cell density of 2500 cells per well and a final DMSO concentration of 0.3% and incubated at 37° C. for 72 hours. Cell viability was then determined using the CellTiter-Glo® Luminescent Cell Viability Assay according to the manufacturer's protocol (Promega; Madison, Wis.) and EC50 values were determined.

human JAK1 kinase domain = human JAK1 kinase domain (Homo sapiens (Human), UniProt P23458); assay: JAK1 Inhibition Assay Protocol (Caliper LabChip peptide phosphorylation); assay type: biochemical; details: enzymatic activity, 25 uM ATP
Description: (§1) The catalytically active kinase domain of human JAK1, JAK2, JAK3 or TYK2 was purified from extracts of SF9 insect cells infected with a recombinant baculovirus expression vector encoding the human JAK1, JAK2, JAK3 or TYK2 kinase domains (JAK1 amino acid residues N852-D1154 according to the numbering of GenBank sequence accession number P23458, JAK2 amino acid residues D812-G1132 according to the numbering of GenBank sequence accession number NP_004963.1; JAK3 amino acid residues S783-S1124 according to the numbering of GenBank sequence accession number P52333, and TYK2 amino acid residues N873-C1187 according to the numbering of GenBank sequence accession number P29597). The activity of the JAK1, JAK2, JAK3 or TYK2 kinase domains can be measured by a number of direct and indirect methods, including quantification of phosphorylation of peptide substrates derived from the human JAK3 protein (Saltzman et al., Biochem. Biophys. Res. Commun. 246:627-633 (2004)). The activity of the JAK1, JAK2, JAK3 or TYK2 kinase domains was measured in vitro by monitoring phosphorylation of JAK3 derived peptides using the Caliper LabChip technology.
(§2) The activity of the isolated JAK1 or TYK2 kinase domain was measured by monitoring phosphorylation of a peptide derived from JAK3 ([…] fluorescently labeled on the N-terminus with 5-carboxyfluorescein using the Caliper LabChip technology (Caliper Life Sciences, Hopkinton, Mass.). […] Reactions were incubated at 22° C. in 384-well polypropylene microtiter plates for 30 minutes and then stopped by addition of 25 uL of an EDTA containing solution (100 mM Hepes pH 7.2, 0.015% Brij-35, 150 mM EDTA), resulting in a final EDTA concentration of 50 mM. After termination of the kinase reaction, the proportion of phosphorylated product was determined as a fraction of total peptide substrate using the Caliper LabChip 3000 according to the manufacturer's specifications. Ki values were then determined using the Morrison tight binding model (Morrison, J. F., Biochim. Biophys. Acta. 185:269-296 (1969); William, J. W. and Morrison, J. F., Meth. Enzymol., 63:437-467 (1979)).

human TYK2 kinase domain = human TYK2 kinase domain (Homo sapiens (Human), UniProt P29597); assay: TYK2 Inhibition Assay Protocol (Caliper LabChip peptide phosphorylation); assay type: biochemical; details: enzymatic activity, 25 uM ATP; read-out: TYK2i Ki
Description: as §1, §2

human JAK3 kinase domain = human JAK3 kinase domain (Homo sapiens (Human), UniProt P52333); assay: biochemical; assay type: biochemical
Protocol: The activity of the JAK1, JAK2, JAK3 or TYK2 kinase domains was measured in vitro by monitoring phosphorylation of JAK3 derived peptides using the Caliper LabChip technology.
as §2, with “JAK3” for “JAK1 or TYK2”, “specifications.” for “specifications. Ki values were then determined using the Morrison tight binding model (Morrison, J. F., Biochim. Biophys. Acta. 185:269-296 (1969); William, J. W. and Morrison, J. F., Meth. Enzymol., 63:437-467 (1979)).”

[2] = enzymatic activity, 5 uM ATP, read-out: JAK3 Ki

Chain of human JAK1 kinase domain (P23458 852-1154): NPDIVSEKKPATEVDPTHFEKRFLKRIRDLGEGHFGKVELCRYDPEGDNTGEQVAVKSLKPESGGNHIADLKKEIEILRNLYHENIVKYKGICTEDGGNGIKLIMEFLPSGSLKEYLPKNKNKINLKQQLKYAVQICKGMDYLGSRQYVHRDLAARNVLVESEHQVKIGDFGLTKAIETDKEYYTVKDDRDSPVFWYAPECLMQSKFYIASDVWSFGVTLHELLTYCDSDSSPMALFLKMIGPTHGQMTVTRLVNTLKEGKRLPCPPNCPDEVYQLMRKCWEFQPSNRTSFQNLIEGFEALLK
Chain of human TYK2 kinase domain (P29597 873-1187): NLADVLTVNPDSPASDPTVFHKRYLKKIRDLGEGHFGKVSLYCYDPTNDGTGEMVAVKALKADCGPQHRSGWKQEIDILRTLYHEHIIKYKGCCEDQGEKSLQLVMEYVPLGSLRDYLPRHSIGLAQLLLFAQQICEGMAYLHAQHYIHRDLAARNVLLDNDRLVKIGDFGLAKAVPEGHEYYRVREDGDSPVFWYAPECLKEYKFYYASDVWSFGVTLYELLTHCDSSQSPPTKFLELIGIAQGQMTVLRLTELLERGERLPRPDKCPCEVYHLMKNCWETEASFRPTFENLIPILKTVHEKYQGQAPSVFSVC
Chain of human JAK3 kinase domain (P52333 783-1124): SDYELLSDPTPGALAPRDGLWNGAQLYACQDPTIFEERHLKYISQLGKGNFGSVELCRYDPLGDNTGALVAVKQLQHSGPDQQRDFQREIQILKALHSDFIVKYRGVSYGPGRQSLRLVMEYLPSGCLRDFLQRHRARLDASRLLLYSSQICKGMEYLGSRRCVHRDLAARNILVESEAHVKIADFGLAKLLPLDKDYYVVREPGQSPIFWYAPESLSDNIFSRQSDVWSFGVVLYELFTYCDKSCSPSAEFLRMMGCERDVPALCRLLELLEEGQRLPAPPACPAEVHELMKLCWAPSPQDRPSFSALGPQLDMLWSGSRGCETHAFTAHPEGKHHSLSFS

SMILES | EC50 ([1]; Set-2 cells, 1 hr incubation) [nM] | Ki (human JAK1 kinase domain) [nM] | Ki (human TYK2 kinase domain) [nM] | Ki (human JAK3 kinase domain; [2]) [nM] | EC50 ([1]; SET-2, 1 h) [nM] | Ki (human JAK3 kinase domain) [nM]
Cc1cc(NC(=O)c2cnn3ccc(N)nc23)n(-c2cc(Cl)ccc2C)n1 [Example 226] | 17 | 7.4 | 32.8 | 15.7 | – | –
Cc1nc(-c2ccccc2C)c(NC(=O)c2cnn3ccc(N)nc23)s1 [Example 231, 5-amino-pyrazolo[1,5-a]pyrimidine-3-carboxylic acid (2-methyl-4-o-tolyl-thiazol-5-yl)-amide] | – | 15.2 | 43.8 | 12.4 | 80.2 | –
Cc1cc(NC(=O)c2cnn3ccc(Nc4cccc(C(F)(F)F)c4)nc23)on1 [Example 240, 5-(3-Trifluoromethyl-phenylamino)-pyrazolo-[1,5-a]pyrimidine-3-carboxylic acid (3-methyl-isoxazol-5-yl)-amide] | 365 | 36 | 62.4 | 95.1 | – | –
O=C(N[C@H]1CC[C@H](O)CC1)c1cnn2ccc(NC3CCc4ccccc43)nc12 (some centres unmarked) [Example 299, 5-(Indan-1-ylamino)-pyrazolo[1,5-a]pyrimidine-3-carboxylic acid (4-hydroxy-cyclohexyl)-amide] | 256 | 28.7 | 50.9 | – | – | 14.5

Now from value to compound, other results behind:

EC50 ([1]; Set-2 cells, 1 hr incubation) [nM] | Ki (human JAK1 kinase domain) [nM] | Ki (human TYK2 kinase domain) [nM] | Ki (human JAK3 kinase domain; [2]) [nM] | SMILES | EC50 ([1]; SET-2, 1 h) [nM] | Ki (human JAK3 kinase domain) [nM]
18 | 2.8 | 4.1 | 1.7 | Nc1ccn2ncc(C(=O)Nc3c[nH]nc3-c3cc(Cl)ccc3Cl)c2n1 [Example 248, 5-Amino-pyrazolo[1,5-a]-pyrimidine-3-carboxylic acid [3-(2,5-dichloro-phenyl)-1H-pyrazol-4-yl]-amide] | – | –
43.4 | 17.6 | 43.5 | 25.4 | Nc1ccn2ncc(C(=O)Nc3ccnn3-c3cc(Cl)ccc3Cl)c2n1 [Example 277, 5-Amino-pyrazolo[1,5-a]-pyrimidine-3-carboxylic acid [2-(2,5-dichloro-phenyl)-2H-pyrazol-3-yl]-amide] | – | –
170 | 46.6 | 152 | 39.7 | O=C(NC1CCOCC1)c1cnn2ccc(NC3Cc4ccccc4C3)nc12 [Example 297, 5-(Indan-2-ylamino)-pyrazolo[1,5-a]pyrimidine-3-carboxylic acid (tetrahydro-pyran-4-yl)-amide] | – | –
301 | 29.9 | 97.6 | 28.6 | Cc1cc(NC(=O)c2cnn3ccc(N)nc23)n(-c2ccccc2C)n1 [Example 343, 5-Amino-pyrazolo[1,5-a]-pyrimidine-3-carboxylic acid (5-methyl-2-o-tolyl-2H-pyrazol-3-yl)-amide] | – | –
